Measured values: patent US9255110B2 (Hoffmann-La Roche Inc., priority 2010, dated 2016)
Where a name gives a salt, the structure may show the parent alone.

target: IRAK-1 (Homo sapiens (Human), UniProt P51617); experiment: In vitro IRAK-1 kinase assay; format: biochemical; details: purified recombinant IRAK-1, 50 uM ATP, 33P peptide phosphorylation
Protocol: Purified recombinant IRAK-4 protein was incubated with 250 uM synthetic peptide ([…]) in 30 ul of kinase buffer including (20 mM MOPS pH7.2, 25 mM beta glycerol phosphate, 5 mM EGTA, 1 mM sodium orthovanadate, 1 mM DTT, 50 uM ATP, 20 mM MgCl2, 10 uCi γ-^33P, 0.1% BSA) for the indicated time. For purified recombinant IRAK-1 protein kinase assay, 50 uM ATP was used. A 25 ul aliquot of the reaction mixture was transferred on to p81 phosphocellulose squares (Upstate Biotechnology, Lake Placid, N.Y.). The assay squares were washed three times with 0.75% phosphoric acid and once with acetone. Enzyme activity was measured by determining the bound radioactivity by liquid scintillation counting.

Sequence of IRAK-1 (P51617 whole entry, species assumed): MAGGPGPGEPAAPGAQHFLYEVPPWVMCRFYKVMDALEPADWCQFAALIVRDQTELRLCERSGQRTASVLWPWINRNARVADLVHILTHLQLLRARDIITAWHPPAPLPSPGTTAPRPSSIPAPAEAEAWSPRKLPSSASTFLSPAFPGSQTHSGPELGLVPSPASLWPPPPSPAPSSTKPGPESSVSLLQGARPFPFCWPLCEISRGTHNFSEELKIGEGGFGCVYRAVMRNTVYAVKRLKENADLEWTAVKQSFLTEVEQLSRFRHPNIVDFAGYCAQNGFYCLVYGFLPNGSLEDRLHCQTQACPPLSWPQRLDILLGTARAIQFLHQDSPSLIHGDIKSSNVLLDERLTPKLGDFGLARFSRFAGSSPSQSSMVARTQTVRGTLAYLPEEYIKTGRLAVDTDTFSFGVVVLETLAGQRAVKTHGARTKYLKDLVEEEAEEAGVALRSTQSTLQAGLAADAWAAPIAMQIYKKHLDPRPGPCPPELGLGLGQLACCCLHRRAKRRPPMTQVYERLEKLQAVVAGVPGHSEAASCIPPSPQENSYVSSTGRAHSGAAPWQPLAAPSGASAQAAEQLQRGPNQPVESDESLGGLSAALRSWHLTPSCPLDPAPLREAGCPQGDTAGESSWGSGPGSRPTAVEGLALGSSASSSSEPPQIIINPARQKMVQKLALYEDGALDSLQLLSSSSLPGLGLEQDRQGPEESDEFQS

IC50 [nM] | Compound
800 | NCC1CCN(c2ccc(Cl)cc2NC(=O)c2csc3cncnc23)CC1 [Example 64, Thieno[3,2-d]pyrimidine-7-carboxylic acid [2-(4-aminomethyl-piperidin-1-yl)-5-chloro-phenyl]-amide]
463 | 2-(cis-2-amino-cyclohexylamino)-thieno[3,2-d]pyrimidine-7-carboxylic acid (2,4-dimethoxy-phenyl)-amide [Example 26]

target: IRAK-4 (Homo sapiens (Human), UniProt Q9NWZ3); experiment: In vitro IRAK-4 kinase assay; format: biochemical; details: purified recombinant IRAK-4, 50 uM ATP, 33P peptide phosphorylation
Summary of the method: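 Recombinant IRAK-4 or IRAK-1 incubated with 250 uM synthetic peptide in MOPS pH7.2 kinase buffer with 50 uM ATP, 20 mM MgCl2 and γ-33P ATP for the indicated time. Phosphorylated peptide captured on phosphocellulose, washed with phosphoric acid, quantified by scintillation counting.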

Sequence of IRAK-4 (Q9NWZ3 whole entry, species assumed): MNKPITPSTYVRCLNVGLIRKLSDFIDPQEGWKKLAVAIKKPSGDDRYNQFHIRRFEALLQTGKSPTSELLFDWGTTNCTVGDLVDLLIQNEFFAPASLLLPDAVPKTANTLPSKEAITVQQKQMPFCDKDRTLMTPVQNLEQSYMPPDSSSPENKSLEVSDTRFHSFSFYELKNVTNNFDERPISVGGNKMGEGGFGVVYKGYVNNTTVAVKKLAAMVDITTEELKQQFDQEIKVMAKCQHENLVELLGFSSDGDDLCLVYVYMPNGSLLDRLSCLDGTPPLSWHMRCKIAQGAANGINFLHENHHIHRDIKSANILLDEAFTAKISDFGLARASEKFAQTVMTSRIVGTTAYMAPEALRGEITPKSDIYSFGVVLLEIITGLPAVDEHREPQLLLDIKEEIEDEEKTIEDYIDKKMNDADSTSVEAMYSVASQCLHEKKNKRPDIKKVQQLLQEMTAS

IC50 [nM] | Compound
167 | NCC1CCN(c2ccc(Cl)cc2NC(=O)c2csc3cncnc23)CC1 [Example 64, Thieno[3,2-d]pyrimidine-7-carboxylic acid [2-(4-aminomethyl-piperidin-1-yl)-5-chloro-phenyl]-amide]
4660 | COc1ccc(Cl)cc1NC(=O)c1csc2ccc(NCCO)nc12 [Example 162, 5-(2-Hydroxy-ethylamino)-thieno[3,2-beta]pyridine-3-carboxylic acid (5-chloro-2-methoxy-phenyl)-amide]
2200 | COc1ccc(Cl)cc1NC(=O)c1csc2cncnc12 [Example 128, Thieno[3,2-d]pyrimidine-7-carboxylic acid (5-chloro-2-methoxy-phenyl)-amide]
254 | COc1cnc2c(C(=O)Nc3cc(Cl)ccc3N3CCC(CN)CC3)cnn2c1 [Example 71, 6-Methoxy-pyrazolo[1,5-alpha]pyrimidine-3-carboxylic acid [2-(4-aminomethyl-piperidin-1-yl)-5-chloro-phenyl]-amide]
4850 | O=C(Nc1cc(Cl)ccc1N1CCCCC1CO)c1cnn2cccnc12 (stereo not drawn) [Example 164, Pyrazolo[1,5-alpha]pyrimidine-3-carboxylic acid [5-chloro-2-(2-hydroxymethyl-piperidin-1-yl)-phenyl]-amide]
8 | CNCC1CCN(c2ccc(Cl)cc2NC(=O)c2csc3cncnc23)CC1 [Example 8, Thieno[3,2-d]pyrimidine-7-carboxylic acid [5-chloro-2-(4-methylaminomethyl-piperidin-1-yl)-phenyl]-amide]
2420 | COCCCOc1ccc(Cl)cc1NC(=O)c1cnn2cccnc12 [Example 138, Pyrazolo[1,5-alpha]pyrimidine-3-carboxylic acid [5-chloro-2-(3-methoxy-propoxy)-phenyl]-amide]
199 | O=C(Nc1cc(CO)ccc1N1CCCCC1)c1cnn2cccnc12 [Example 66, Pyrazolo[1,5-alpha]pyrimidine-3-carboxylic acid (5-hydroxymethyl-2-piperidin-1-yl-phenyl)-amide]
4130 | COc1ccc(Cl)cc1NC(=O)c1csc2cnc(N(C)CCO)nc12 [Example 157, 2-[(2-Hydroxy-ethyl)-methyl-amino]-thieno[3,2-d]pyrimidine-7-carboxylic acid (5-chloro-2-methoxy-phenyl)-amide]
290 | CC(C)Oc1ccc(Cl)cc1NC(=O)c1csc2cncnc12 [Example 74, Thieno[3,2-d]pyrimidine-7-carboxylic acid (5-chloro-2-isopropoxy-phenyl)-amide]
766 | NC1CCN(c2ccc(Cl)cc2NC(=O)c2cnn3cccnc23)C1 (stereo not drawn) [Example 109, Pyrazolo[1,5-alpha]pyrimidine-3-carboxylic acid [2-(3-amino-pyrrolidin-1-yl)-5-chloro-phenyl]-amide]
640 | COc1cc(C(=O)NCCCO)ccc1NC(=O)c1cnn2cccnc12 [Example 105, Pyrazolo[1,5-alpha]pyrimidine-3-carboxylic acid [4-(3-hydroxy-propylcarbamoyl)-2-methoxy-phenyl]-amide]
5880 | CCc1ccc(OC)c(NC(=O)c2cnn3cccnc23)c1 [Example 166, Pyrazolo[1,5-alpha]pyrimidine-3-carboxylic acid (5-ethyl-2-methoxy-phenyl)-amide]
799 | O=C(Nc1cc(Cl)ccc1C1CCCCC1)c1cnn2cccnc12 [Example 112, Pyrazolo[1,5-alpha]pyrimidine-3-carboxylic acid (5-chloro-2-cyclohexyl-phenyl)-amide]
2950 | O=C(Nc1cc(Cl)ccc1CCCCO)c1cnn2cccnc12 [Example 145, Pyrazolo[1,5-alpha]pyrimidine-3-carboxylic acid [5-chloro-2-(4-hydroxy-butyl)-phenyl]-amide]
127 | COc1cc2ncccc2cc1NC(=O)c1csc2cnc(N(CCO)C(C)C)nc12 [Example 57, 2-[(2-Hydroxy-ethyl)-isopropyl-amino]-thieno[3,2-d]pyrimidine-7-carboxylic acid (7-methoxy-quinolin-6-yl)-amide]
564 | NCC1CCN(c2ccc(Cl)cc2NC(=O)c2cnn3cccnc23)C1 (stereo not drawn) [Example 101, Pyrazolo[1,5-alpha]pyrimidine-3-carboxylic acid [2-(3-aminomethyl-pyrrolidin-1-yl)-5-chloro-phenyl]-amide]
605 | O=C(Nc1cc(Cl)ccc1OC1CCCC(O)C1)c1cnn2cccnc12 (stereo not drawn) [Example 103, Pyrazolo[1,5-alpha]pyrimidine-3-carboxylic acid [5-chloro-2-(3-hydroxy-cyclohexyloxy)-phenyl]-amide]

IC50 [nM] | Compound
1520 | O=C(Nc1cc(Cl)ccc1OC1CCC(O)C1)c1csc2cncnc12 (centres unmarked) [Example 120, Thieno[3,2-d]pyrimidine-7-carboxylic acid [5-chloro-2-(3-hydroxy-cyclopentyloxy)-phenyl]-amide]
3700 | COc1ccc(/C=C/CO)cc1NC(=O)c1cnn2cccnc12 [Example 152, Pyrazolo[1,5-alpha]pyrimidine-3-carboxylic acid [5-(3-hydroxy-propenyl)-2-methoxy-phenyl]-amide]
2850 | O=C(Nc1cccc(NCCCO)c1N1CCCCC1)c1cnn2cccnc12 [Example 144, Pyrazolo[1,5-alpha]pyrimidine-3-carboxylic acid [3-(3-hydroxy-propylamino)-2-piperidin-1-yl-phenyl]-amide]
300 | O=C(Nc1ccc2ncccc2c1)c1csc2cnc(NCCO)nc12 [Example 75, 2-(2-Hydroxy-ethylamino)-thieno[3,2-d]pyrimidine-7-carboxylic acid quinolin-6-ylamide]
2230 | CC[C@@H](CO)Nc1ncc2scc(C(=O)Nc3cc(Cl)ccc3OC)c2n1 [Example 131, 2-(1-Hydroxymethyl-propylamino)-thieno[3,2-d]pyrimidine-7-carboxylic acid (5-chloro-2-methoxy-phenyl)-amide]
2310 | O=C(Nc1cc(Cl)ccc1OC[C@@H](O)CO)c1cnn2cccnc12 [Example 137, Pyrazolo[1,5-alpha]pyrimidine-3-carboxylic acid [5-chloro-2-(2,3-dihydroxy-propoxy)-phenyl]-amide]
2750 | C=Cc1ccc(OC)c(NC(=O)c2cnn3cccnc23)c1 [Example 143, Pyrazolo[1,5-alpha]pyrimidine-3-carboxylic acid (2-methoxy-5-vinyl-phenyl)-amide]
2250 | O=C(Nc1cc(Cl)ccc1OC1CCC(O)CC1)c1cnn2cc(CO)cnc12 (stereo not drawn) [Example 133, 6-Hydroxymethyl-pyrazolo[1,5-alpha]pyrimidine-3-carboxylic acid [5-chloro-2-(4-hydroxy-cyclohexyloxy)-phenyl]-amide]
3540 | CNCC1CCN(c2ccc(Cl)cc2NC(=O)c2csc3cncnc23)CC1 [Example 151, Thieno[3,2-d]pyrimidine-7-carboxylic acid [5-chloro-2-(4-methylaminomethyl-piperidin-1-yl)-phenyl]-amide]
327 | O=C(Nc1cc2ccccc2cc1OCCCO)c1cnn2cccnc12 [Example 80, Pyrazolo[1,5-alpha]pyrimidine-3-carboxylic acid [3-(3-hydroxy-propoxy)-naphthalen-2-yl]-amide]
455 | O=C(Nc1cc2cccnc2cc1OC1CCNC1)c1csc2cncnc12 (centres unmarked) [Example 88, Thieno[3,2-d]pyrimidine-7-carboxylic acid [7-(pyrrolidin-3-yloxy)-quinolin-6-yl]-amide hydrochloride]
136 | O=C(Nc1cc(Cl)ccc1N1CCC(O)CC1)c1cnn2cccnc12 [Example 60, Pyrazolo[1,5-alpha]pyrimidine-3-carboxylic acid [5-chloro-2-(4-hydroxy-piperidin-1-yl)-phenyl]-amide]
137 | O=C(Nc1cc(Cl)ccc1OC1CCC(O)CC1)c1cnn2cc(Br)cnc12 (stereo not drawn) [Example 61, 6-Bromo-pyrazolo[1,5-alpha]pyrimidine-3-carboxylic acid [5-chloro-2-(4-hydroxy-cyclohexyloxy)-phenyl]-amide]
8090 | COc1ccc(Cl)cc1NC(=O)c1csc2cnc(NCCNC(C)=O)nc12 [Example 175, 2-(2-Acetylamino-ethylamino)-thieno[3,2-d]pyrimidine-7-carboxylic acid-(5-chloro-2-methoxy-phenyl)-amide]
596 | COc1cc2cc[nH]c2cc1NC(=O)c1csc2cncnc12 [Example 102, Thieno[3,2-d]pyrimidine-7-carboxylic acid (5-methoxy-1H-indol-6-yl)-amide]
4050 | O=C(Nc1cc(Cl)ccc1Oc1cccc(O)c1)c1cnn2cccnc12 [Example 156, Pyrazolo[1,5-alpha]pyrimidine-3-carboxylic acid [5-chloro-2-(3-hydroxy-phenoxy)-phenyl]-amide]
1460 | CC(C)(CCO)Oc1ccc(Cl)cc1NC(=O)c1csc2cncnc12 [Example 117, Thieno[3,2-d]pyrimidine-7-carboxylic acid [5-chloro-2-(3-hydroxy-1,1-dimethyl-propoxy)-phenyl]-amide]

Compound | IC50 [nM]
2-(cis-2-Amino-cyclohexylamino)-thieno[3,2-d]pyrimidine-7-carboxylic acid quinolin-8-ylamide [Example 22] | 28
